According to US4966914A, “Oculoselective beta-blockers as antiglaucoma agents” (E. I. Du Pont de Nemours and Company, priority 1988, dated 1990):
Where two headings read alike, the source gives them in different places.

Experiments:
[1] = Ocular bioavailability in rabbits; format: in vivo, New Zealand White Rabbits; conditions: for Tmax: rabbit, topical or ocular
Method: The ocular bioavailability of Timolol and compound 1 (monopivaloyl ester prodrug of compound 2) was evaluated in New Zealand White Rabbits. Fifty μL of a solution of 0.25% Timolol or 0.5% compound 1 (both in the same vehicle) were administered onto the cornea of both eyes of 48 rabbits (24 rabbits/compound). At 5, 15, 30, 60, 120, 180, 240, and 360 minutes after dosing, 3 rabbits (6 eyes)/compound were killed. The cornea, aqueous humor (AH), iris-ciliary body complex (I-CBC) were quickly removed from the eyes, weighed and processed to determine tissue levels of Timolol or compound 1 and compound 2.

[2] = tested on: isoproterenol-induced changes in heart rate or diastolic blood pressure; test: Effect on systemic beta-blockade upon topical administration (isoproterenol-induced changes in heart rate or diastolic blood pressure); format: in vivo, Mongrel dogs; conditions: for Diastolic blood pressure (DBP) / Heart rate (HR): Table 1, 0.5%
Method: Mongrel dogs were anesthetized and control readings were made at -45 and -30 minutes. Following the -30 minute reading, an infusion of isoproterenol (0.5 μg/kg/min) was begun and maintained during the course of the experiment. Two readings of pretreatment isoproterenol responses were made at […] and at zero minutes.
At zero minutes, a 50 μL sample of test compound was administered topically. […] Heart rate was obtained directly from the strip chart recording.

[3] = molecular target: T1, ATRIA (Cavia porcellus, UniProt H0W3H1); test: In vitro potency (pA2), beta-blocking, atria; format: cell-based
T1 construct: ATRIA; from tissue
T1 sequence (H0W3H1 1-470): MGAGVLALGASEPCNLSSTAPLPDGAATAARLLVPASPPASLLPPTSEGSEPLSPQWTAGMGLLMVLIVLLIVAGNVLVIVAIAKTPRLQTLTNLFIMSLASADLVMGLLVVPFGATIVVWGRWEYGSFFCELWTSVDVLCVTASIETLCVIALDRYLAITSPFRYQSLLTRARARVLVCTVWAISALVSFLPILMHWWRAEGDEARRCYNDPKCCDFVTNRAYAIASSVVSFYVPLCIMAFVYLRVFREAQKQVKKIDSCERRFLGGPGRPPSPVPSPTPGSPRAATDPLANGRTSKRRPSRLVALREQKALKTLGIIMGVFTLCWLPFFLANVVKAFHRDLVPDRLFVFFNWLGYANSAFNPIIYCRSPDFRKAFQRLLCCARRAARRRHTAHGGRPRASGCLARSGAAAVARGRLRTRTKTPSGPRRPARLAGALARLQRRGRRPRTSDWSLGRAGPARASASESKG
Method: (§1) The in vitro potency (pA2), in vivo potency and duration of action (DOA) of the compounds of the present invention are recorded in Tables 2 to 4. These pharmacological activities were determined using the methods described in U.S. patent 4,582,855 issued Apr.

[4] = tested on: beta-blocking effects; test: In vivo beta-blocking potency and duration of action (DOA); conditions: for DOA (duration of action): Tables 2 and 4
Method: as §1

[5] = 50 μL, 0.25% solution, single topical application
[6] = 15 min post-treatment, isoproterenol infusion
[7] = 30 min post-treatment, isoproterenol infusion
[8] = 45 min post-treatment, isoproterenol infusion
[9] = 60 min post-treatment (dose), isoproterenol infusion
[10] = 75 min post-treatment, isoproterenol infusion
[11] = 90 min post-treatment, isoproterenol infusion
[12] = 105 min post-treatment, isoproterenol infusion
[13] = 120 min post-treatment (dose), isoproterenol infusion
[14] = 135 min post-treatment, isoproterenol infusion
[15] = 150 min post-treatment, isoproterenol infusion
[16] = 165 min post-treatment, isoproterenol infusion
[17] = 180 min post-treatment, isoproterenol infusion
[18] = Table 1 summary, given as "down"
[19] = Table 3, atria, read-out: pA2 ATRIA (converted)
[20] = Tables 2 and 4, read-out: In-vitro potency pA2 (converted)

## CC(C)(C)NC[C@H](O)COc1nsnc1N1CCOCC1 [Timolol, reference compound]
[1]; 0.25% Timolol or 0.5% compound 1, topical
  Absorption across the cornea: rapidly absorbed across the cornea into the AH and I-CBC
[1]; AH, 0-240 min, 0.25% Timolol or 0.5% compound 1
  Area under the concentration time curve (AUC0-240'), AH: 9,022 ng/100 μL/min
[1]; AH, 0.25% Timolol or 0.5% compound 1
  Peak level in aqueous humor (AH): 131 ng/100 μL
[1]; I-CBC, 0-240 min, 0.25% Timolol or 0.5% compound 1
  Area under the concentration time curve (AUC0-240'), I-CBC: 533 ng/50 mg/min
[1]; I-CBC, 0.25% Timolol
  Peak level in iris-ciliary body complex (I-CBC): 58 ng/50 mg
[1]; cornea, 0-240 min, 0.25% Timolol or 0.5% compound 1
  Area under the concentration time curve (AUC0-240'), cornea: 68,293 ng/50 mg/min
[1]; cornea, 50 μL onto cornea, 0.25% Timolol or 0.5% compound 1
  Peak cornea level: 770 ng/50 mg
[1]; aqueous humor, AH, 0.25% Timolol or 0.5% compound 1, read-out: Time of peak level in aqueous humor (AH) (converted)
  Tmax: 30 min
[1]; iris-ciliary body, I-CBC, 0.25% Timolol, read-out: Time of peak level in I-CBC (converted)
  Tmax: 30 min
[1]; cornea, 0.25% Timolol or 0.5% compound 1, read-out: Time of peak level in cornea (converted)
  Tmax: 5 min
[2]; [5]
  Antagonism of diastolic blood pressure response to isoproterenol: long lasting antagonism
  Effect on heart rate response to isoproterenol: significant inhibitory effect
[2]; 50 μL, 0.25% solution, single topical application, from-to
  Diastolic blood pressure response to isoproterenol: 72-107 mmHg
[2]; 0 min, ISO only
  Diastolic blood pressure (DBP): 72 mmHg
  Heart rate (HR): 197 bpm
[2]; [6]
  Diastolic blood pressure (DBP): 93 mmHg
  Heart rate (HR): 175 bpm
[2]; [7]
  Diastolic blood pressure (DBP): 94 mmHg
  Heart rate (HR): 158 bpm
[2]; [8]
  Diastolic blood pressure (DBP): 96 mmHg
  Heart rate (HR): 155 bpm
[2]; [9]
  Diastolic blood pressure (DBP): 99 mmHg
  Heart rate (HR): 157 bpm
[2]; [10]
  Diastolic blood pressure (DBP): 102 mmHg
  Heart rate (HR): 157 bpm
[2]; [11]
  Diastolic blood pressure (DBP): 103 mmHg
  Heart rate (HR): 152 bpm
[2]; [12]
  Diastolic blood pressure (DBP): 104 mmHg
  Heart rate (HR): 153 bpm
[2]; [13]
  Diastolic blood pressure (DBP): 105 mmHg
  Heart rate (HR): 157 bpm
[2]; [14]
  Diastolic blood pressure (DBP): 107 mmHg
  Heart rate (HR): 154 bpm
[2]; [15]
  Diastolic blood pressure (DBP): 107 mmHg
  Heart rate (HR): 153 bpm
[2]; [16]
  Diastolic blood pressure (DBP): 105 mmHg
  Heart rate (HR): 153 bpm
[2]; [17]
  Diastolic blood pressure (DBP): 107 mmHg
  Heart rate (HR): 159 bpm
[2]; -30 min, baseline
  Heart rate (HR): 144 bpm
[2]; Table 1 summary, from ISO only to end of experiment
  Summary: BP: 71-107 mmHg
[2]; [18]
  Summary: BP change: 35 mmHg
  Summary: HR change: 38 bpm
[2]; four topical applications, 50 μL, 0.25% solution, 60 minute intervals
  Systemic beta-blockade: prolonged systemic beta-blockade

## CC(C)(CNC(=O)C1CCCCC1)NCC(O)COC(=O)c1ccc(O)c(O)c1 (stereo not shown)
[3]; [19]
  Kb: 6.31 nM

## Cc1cc(O)c(O)cc1C(=O)OCC(O)CNC(C)(C)CNC(=O)C1CCCCC1 (stereo not shown)
[3]; [20]
  Kb: 3.98 nM
[4]; Table 2, cell prints 31/>60
  DOA (duration of action), second value after the slash: > 60 min
[4]
  DOA (duration of action): 31 min

## COc1cc(O)c(O)cc1C(=O)OCC(O)CNC(C)(C)CNC(=O)C1CCCCC1 (stereo not shown)
[3]; [19]
  Kb: 25.1 nM

## CC(=O)NCC(C)(C)NCC(O)COC(=O)c1cc(O)c(O)cc1C (stereo not shown) [Me CH3]
[3]; [19]
  Kb: 25.1 nM

## CC(C)C(=O)NCC(C)(C)NCC(O)COC(=O)c1cc(O)c(O)cc1N (stereo not shown)
[3]; [19]
  Kb: 79.4 nM

## Cc1cc(O)c(O)cc1C(=O)OCC(O)CNC(C)(C)CNC(=O)C1CCOC1 (stereo not shown) [drawing 25]
[3]; [20]
  Kb: 1.58 nM
[4]
  DOA (duration of action): 49 min

## Cc1cc(O)c(O)cc1C(=O)OCC(O)CNC(C)(C)CNC(=O)N1CCOCC1 (stereo not shown)
[3]; [20]
  Kb: 2 nM
[4]
  DOA (duration of action): 60 min

## Cc1cc(O)c(O)cc1C(=O)OCC(O)CNC(C)(C)CNC(=O)c1ccccc1 (stereo not shown)
[3]; [19]
  Kb: 20 nM

## CCOc1cc(O)c(O)cc1C(=O)OCC(O)CNC(C)(C)CNC(=O)C(C)C (stereo not shown) [OEt]
[4]
  DOA (duration of action): 22 min

## Cc1cc(O)c(O)cc1C(=O)OCC(O)CNC(C)(C)CNC(N)=O (stereo not shown) [Me NH2]
[3]; [19]
  Kb: 1.26 nM

## CC(C)(CNC(=O)C1CCOC1)NCC(O)COC(=O)c1ccc(O)c(O)c1 (stereo not shown)
[3]; [19]
  Kb: 1.26 nM

## Cc1cc(O)c(O)cc1C(=O)OCC(O)CNC(C)(C)CNC(=O)C1CC1 (stereo not shown)
[3]; [19]
  Kb: 20 nM

## CCC(=O)NCC(C)(C)NCC(O)COC(=O)c1cc(O)c(O)cc1C (stereo not shown)
[3]; [19]
  Kb: 10 nM
